The values below come from patent US10519133B2, “Vinyl compounds as FGFR and VEGFR inhibitors” (MEDSHINE DISCOVERY INC., priority 2015, dated 2019).

A value given as a limit tells only on which side of the number the result lay.

The target in the assay is T1, FGFR1 (Homo sapiens, UniProt P11362).
T1 construct: purchased Invitrogen PV4105
The assay can be described thus: Z′-LYTE Detection Kinase Assay, in vitro enzymatic activity. Format: biochemical. The conditions noted are these: 0.6 nM FGFR1, 2 uM Tyr4 peptide, 10 uM ATP, 60 min 23° C. Here is the method: To measure enzyme activity by Z′-LYTE™ Detection Kinase Assay, and to evaluate the inhibitory effect of the compounds on FGFR1 using IC50 value of the compounds as an indicator. […]
Reaction Buffer: 50 mM Hepes (pH 7.5), 10 mM MgCl2, 1 mM EGTA, 0.01% Brij-35, 1 mM DTT, 2 mM MnCl2 0.6 nM FGFR1, 2 uM Tyr4 peptide and 10 uM ATP in reaction buffer (50 mM Hepes, pH 7.5, 10 mM MgCl2, 0.01% BRIJ-35, 1 mM EGTA, 4 mM MnCl2, 2 mM DTT). a. Diluting the compounds with DMSO to 10 mM, 3-fold dilution, 11 gradients, duplicate wells. b. Diluting the compound by 1:25 into middle plate at Bravo Automatic Liquid Station, then transferring 2.5 ul to the reaction plate to ensure the final DMSO concentration to be 1%. c. Transferring 5 ul of enzyme/substrate buffer into each well d. Using Multidrop Liquid Workstation to sequentially add ATP solution to each well e. Centrifuging at 1000 rpm for 1 minute f. Placing the reaction plate in an incubator at 23° C. to react for 60 min. a. Preparing a 1:128 mixture of Development Regent B and Development Buffer b. Adding 5 ul to each well and centrifuging at 1000 rpm for 1 minute c. Placing the reaction plate in a thermostat (23° C.) after centrifuging for 90 minutes, removing and reading on Envision (Perkin Elmer) Plate Reader
D. Analyzing Data: Analyzing Data Using XLFIT (IDBS) and Calculating IC50 Values for the Compounds.

T1 sequence (P11362 22-822): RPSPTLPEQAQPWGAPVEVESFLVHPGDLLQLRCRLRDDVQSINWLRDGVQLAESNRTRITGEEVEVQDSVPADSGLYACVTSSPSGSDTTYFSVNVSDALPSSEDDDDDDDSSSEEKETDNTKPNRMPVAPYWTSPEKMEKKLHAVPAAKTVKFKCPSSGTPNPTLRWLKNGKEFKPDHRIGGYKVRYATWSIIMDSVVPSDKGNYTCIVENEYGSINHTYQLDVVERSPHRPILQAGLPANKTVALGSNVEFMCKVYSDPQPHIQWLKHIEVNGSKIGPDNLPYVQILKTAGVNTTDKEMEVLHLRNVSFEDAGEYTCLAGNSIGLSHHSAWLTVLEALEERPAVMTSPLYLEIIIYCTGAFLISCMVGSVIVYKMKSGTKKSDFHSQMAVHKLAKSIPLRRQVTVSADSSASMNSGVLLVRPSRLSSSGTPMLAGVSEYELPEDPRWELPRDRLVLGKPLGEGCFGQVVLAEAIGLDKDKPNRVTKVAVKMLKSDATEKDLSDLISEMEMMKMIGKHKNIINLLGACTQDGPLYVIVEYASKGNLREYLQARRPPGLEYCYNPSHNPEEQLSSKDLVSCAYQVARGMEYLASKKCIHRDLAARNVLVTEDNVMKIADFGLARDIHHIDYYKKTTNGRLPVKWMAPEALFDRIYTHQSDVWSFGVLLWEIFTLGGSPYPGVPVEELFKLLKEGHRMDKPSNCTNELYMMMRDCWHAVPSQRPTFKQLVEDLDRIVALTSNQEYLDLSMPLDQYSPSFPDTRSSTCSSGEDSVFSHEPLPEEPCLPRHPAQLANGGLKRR

`C[C@@H](Oc1ccc2[nH]nc(/C(F)=C\c3ccc(CN4CCOCC4)nc3)c2c1)c1c(Cl)cncc1Cl` [Example 2] displayed a half-maximal inhibitory concentration (IC50) of 50 to 1000 nM.
As to `C[C@H](Oc1ccc2[nH]nc(/C(F)=C\c3ccc(CN4CCOCC4)nc3)c2c1)c1c(Cl)cncc1Cl` [Example 3], the IC50 was 50 to 1000 nM.
The molecule `C[C@@H](Oc1ccc2[nH]nc(/C(F)=C/c3ccc(CN4CCOCC4)nc3)c2c1)c1c(Cl)cncc1Cl` [Example 4] returned an IC50 of 50 to 1000 nM.
Molecule `C[C@H](Oc1ccc2[nH]nc(/C(F)=C/c3ccc(CN4CCOCC4)nc3)c2c1)c1c(Cl)cncc1Cl` [Example 5] came in with a concentration for half-maximal inhibition (IC50) of 50 to 1000 nM.
In turn, `C[C@H](Oc1ccc2[nH]nc(/C(O)=C/c3ccc(CN4CCOCC4)nc3)c2c1)c1c(Cl)cncc1Cl` [Example 6] yielded an IC50 of 50 to 1000 nM.
For the molecule `CC(Oc1ccc2[nH]nc(/C(F)=C/c3ccc(CN4CCC(CO)CC4)nc3)c2c1)c1c(Cl)cncc1Cl` (centres unmarked) [Example 9], the half-maximal inhibitory concentration (IC50) fell in the range of 10 to 50 nM.
For the molecule `CC(Oc1ccc2[nH]nc(/C(F)=C/c3ccc(CNC4CCOCC4)nc3)c2c1)c1c(Cl)cncc1Cl` (centres unmarked) [Example 10], the concentration for half-maximal inhibition (IC50) was in the range of 10 to 50 nM.
Regarding `CC(Oc1ccc2[nH]nc(/C(F)=C/c3ccc(CNCCN4CCOCC4)nc3)c2c1)c1c(Cl)cncc1Cl` (centres unmarked) [Example 11], the IC50 fell in the range of 50 to 1000 nM.
In turn, `CC(Oc1ccc2[nH]nc(/C(F)=C/c3ccc(CN4CCC(O)C4)nc3)c2c1)c1c(Cl)cncc1Cl` (centres unmarked) [Example 12] gave an IC50 of 10 to 50 nM.
Consider `CC(Oc1ccc2[nH]nc(/C(F)=C/c3ccc(CN4CCOCC4)nn3)c2c1)c1c(Cl)cncc1Cl` (centres unmarked) [Example 13], for which the half-inhibitory concentration (IC50) lay within 50 to 1000 nM.
In the case of `CCN(Cc1ccc(/C(F)=C/c2n[nH]c3ccc(O[C@H](C)c4c(Cl)cncc4Cl)cc23)cn1)C1CCOCC1` [Example 18b], the IC50 is at most 10 nM.
In turn, `C[C@H](Oc1ccc2[nH]nc(/C=C(\F)c3ccc(CN4CCC(CO)CC4)nc3)c2c1)c1c(Cl)cncc1Cl` [Example 22] showed a half-inhibitory concentration (IC50) of 10 to 50 nM.
Under `C[C@H](Oc1ccc2[nH]nc(/C=C(\F)c3ccc(CN4CCC(O)C4)nc3)c2c1)c1c(Cl)cncc1Cl` (some centres unmarked) [Example 23] stands at most 10 nM.
As to `C[C@@H](Oc1ccc2[nH]nc(/C=C(\F)c3ccc(CN[C@H]4C[C@H](O)C4)nc3)c2c1)c1c(Cl)cncc1Cl` [Example 26], the 50% inhibitory concentration (IC50) is 10 to 50 nM.
Take `C[C@@H](Oc1ccc2[nH]nc(/C=C(\F)c3ccc(CN4CCN(CCO)CC4)nc3)c2c1)c1c(Cl)cncc1Cl` [Example 27]: the half-maximal inhibitory concentration (IC50) is at most 10 nM.
`C[C@@H](Oc1ccc2[nH]nc(/C=C(\F)c3ccc(CN4CCC(O)C4)nc3)c2c1)c1c(Cl)cncc1Cl` (some centres unmarked) [Example 31] returned a 50% inhibitory concentration (IC50) of at most 10 nM.
Molecule `C[C@@H](Oc1ccc2[nH]nc(/C=C(\F)c3ccc(OC4CCOCC4)nc3)c2c1)c1c(Cl)cncc1Cl` [Example 36] yielded a half-maximal inhibitory concentration (IC50) of 50 to 1000 nM.
Molecule `C[C@@H](Oc1ccc2[nH]nc(/C=C(\F)c3ccc(O[C@H]4CCOC4)nc3)c2c1)c1c(Cl)cncc1Cl` [Example 37] displayed an IC50 of 50 to 1000 nM.
Under `C[C@@H](Oc1ccc2[nH]nc(/C=C(\F)c3ccc(OC4CCNCC4)nc3)c2c1)c1c(Cl)cncc1Cl` [Example 43] stands at most 10 nM; under `CC(Oc1ccc2[nH]nc(/C=C/c3ccc(CN4CCOCC4)nc3)c2c1)c1c(Cl)cncc1Cl` (centres unmarked) [Example 48], at most 10 nM; under `CC(Oc1ccc2[nH]nc(/C=C/c3cncc(CN4CCOCC4)c3)c2c1)c1c(Cl)cncc1Cl` (centres unmarked) [Example 50], at most 10 nM.
On to `CC(Oc1ccc2[nH]nc(/C=C/c3cnc(CN4CCOCC4)nc3)c2c1)c1c(Cl)cncc1Cl` (centres unmarked) [Example 51], for which the IC50 is at most 10 nM.
Under `CC(Oc1ccc2[nH]nc(/C=C/c3ncc(CN4CCOCC4)cn3)c2c1)c1c(Cl)cncc1Cl` (centres unmarked) [Example 52] stands 50 to 1000 nM; under `CC(Oc1ccc2[nH]nc(/C=C/c3ccc(CN4CCOCC4)cc3Cl)c2c1)c1c(Cl)cncc1Cl` (centres unmarked) [Example 55], 50 to 1000 nM; under `CC(Oc1ccc2[nH]nc(/C=C/c3ccc(CN4CCOCC4)c4ccccc34)c2c1)c1c(Cl)cncc1Cl` (centres unmarked) [Example 56], 50 to 1000 nM.
In turn, `Cc1cc(/C=C/c2n[nH]c3ccc(OC(C)c4c(Cl)cncc4Cl)cc23)ccc1CN1CCOCC1` (centres unmarked) [Example 58] showed an IC50 of 50 to 1000 nM.

Broadly, the IC50 is the concentration needed to halve the response being measured. A lower IC50 goes with inhibition by little substance.
